According to patent US9207219B1, “Fully automated analytical method for determination of chloroethers in water and urine sample” (priority 2014, dated 2015):
In brackets after ≈: the same amount, converted by molar mass.

Key:
[1] = Concentration of CEs in human urine determined by fully automated FA-SPME/GC-MS; conditions: urine of a volunteer working at water desalination facility; urine diluted 1:1 with ultrapure water before extraction
Experimental: Analyses were performed using a gas chromatograph (Agilent technologies, 7890A GC) coupled with a quadrupole mass selective spectrometer (Agilent technologies, 5975C) equipped with an inert ion source and provided with a split-splitless injection port. An A HP-5 GC fused silica capillary column (Agilent 19091J-413; 30 m×320 μm ID×0.25 μm thickness) was selected to separate the analytes. CTC CombiPAL autosampler (GC sampler 80, Zwingen, Switzerland) was used for the full automated FA-SPME. Ultra high purity helium (99.999%, Abdulah Hashim, Al-Khobar, Saudi Arabia) was used as the carrier gas at a flow rate of 1.3 mL min^−1. The samples were injected in the splitless mode. The temperature program used for the analyses was as follows: the initial temperature was 40° C. held 1 min which was then increased to 118° C. at 10° C. min^−1 and held for 3 min, then to 190 C at 15° C. min^−1 and held for 4 min. The total run time was 18.6 min. The injection port, ion source and interface temperatures were 280° C., 230° C., and 250° C., respectively. For qualitative determinations, the MSD was operated in full-scan mode from m/z 50 to 550 and selective ion monitoring mode was used for the quantification of the analytes. […]
The applicability of the proposed FA-SPME technique for real water and urine sample matrices were evaluated. […]

[2] = cited from earlier work
[3] = cited from earlier work; remark: listed apart in the source

Row | SMILES | concentration in real sample, Human urine [1] | Solubility at 20-25° C. [2] | Vapor pressure at 20-25° C. [2] | Henry's law constant at 20° C. [2] | Diffusion coefficient in air [2] | Diffusion coefficient in water [2] | minimum half-life in water [3]
1 | ClCCOCCCl [BCEE, Bis(2-chloroethyl)ether] | 30.8 µg/L | 10.2 mg/mL (≈ 71.3 mM) | 1.34 mmHg | 0.00089 | 0.069 cm^2 s^−1 | 7.53E−06 cm^2 s^−1 | –
2 | ClCCOCOCCCl [BCEM, Bis(2-chloroethoxy)methane] | 11.5 µg/L | 1.3534 mg/mL (≈ 7.82 mM) | 0.179 mmHg | 0.001 | 0.058 cm^2 s^−1 | 7.11E−06 cm^2 s^−1 | ≥ 2 years
